Data from patent publication US20170119833A1, “ACANTHOSPERMUM HISPIDUM COMPOSITION FOR THE TREATMENT OF CANCER AND METHODS FOR ITS MANUFACTURE” (priority 2014, published 2017).

Experiments:
Type in all cases: in vivo, Swiss albino mice
DAL [1] = experiment: Dead cell count of DAL ascitic fluid in mice
Protocol: (§1) The extracts used were in the form of suspension with tween-20 (one part by volume) and distilled water (two parts by volume). The prepared extracts were also used for further studies. Animals used for studies were Swiss albino mice. Six experiments were carried for each plant extract.
(§2) After development of tumor the drug treatment was given on the 9th day and the 18th day post tumor inoculation. The peritoneal fluid was collected once on the 11th day and 20th day from each mouse and the following parameters were examined in antitumor assessment:
Ascitic fluid for cell cytology, specifically dead cell count and histopathology.
(§3) Statistical analysis: The data for anti-tumor activity was analyzed by one-way ANOVA followed by Dunnett's ‘t’ test. P<0.05 was considered statistically significant.

DAL [2] = experiment: Mean survival time (MST) in DAL-bearing mice
Protocol: as §1, §2
Mean Survival time (MST);
as §3

DAL [3] = experiment: Hematological parameters in DAL-bearing mice; conditions: 5-FU 12.5 mg/kg p.o., extracts 300 mg/kg p.o.
Protocol: The extracts used were in the form of suspension with tween-20 (one part by volume) and distilled water (two parts by volume). The prepared extracts were also used for further studies. Animals used for studies were Swiss albino mice. Six experiments were carried for each plant extract. After development of tumor the drug treatment was given on the 9th day and the 18th day post tumor inoculation. […] Hematological parameters, such as WBC, RBC, Hb, differential Leucocyte count; Statistical analysis: The data for anti-tumor activity was analyzed by one-way ANOVA followed by Dunnett's ‘t’ test. P<0.05 was considered statistically significant.

DAL [4] = experiment: Body weight (tumor volume) of DAL-bearing mice; conditions: for body weight: mean of six experiments
Protocol: as §1, §2
Body weight (tumor volume). All parameters were examined with standard procedures.

Structure (SMILES): O=c1[nH]cc(F)c(=O)[nH]1 [5-FU, 5-Fluorouracil]
- % of dead cells (DAL [1]; 11th day): 35%
- % protection against tumor (DAL [1]; 11th day): 52%
- % of dead cells (DAL [1]; 20th day): 51%
- % protection against tumor (DAL [1]; 20th day): 54.54%
- No. of Days Alive ± SEM (DAL [2]; DAL-bearing mice): 26 ± 0.24 days
- Mean Survival time (%) (DAL [2]; tumor control (DAL) = 100): 110%
- Hb g/dl ± SEM (DAL [3]; Day 11): 5.8 ± 0.98 g/dL
- Lymphocytes ± SEM (DAL [3]; Day 11): 48 ± 0.41
- Monocytes (DAL [3]; Day 11): 2
- Neutrophils ± SEM (DAL [3]; Day 11): 56 ± 0.82
- RBC × 10^6 ± SEM (DAL [3]; Day 11): 2.20 ± 0.08 × 10^6
- Hb g/dl ± SEM (DAL [3]; Day 20): 7.2 ± 0.04 g/dL
- Lymphocytes ± SEM (DAL [3]; Day 20): 54.98 ± 0.81
- Monocytes (DAL [3]; Day 20): 2
- Neutrophils ± SEM (DAL [3]; Day 20): 34.98 ± 0.03
- RBC × 10^6 ± SEM (DAL [3]; Day 20): 2.61 ± 0.03 × 10^6
- WBC ± SEM (DAL [3]; Day 20): 11,600 ± 2.03
- % increase in body weight on 20th day post-tumor inoculation (DAL [4]; 20th day post-tumor inoculation): 32.08%
- body weight (DAL [4]; day 9 post tumor inoculation): 22.33 grams
- body weight (DAL [4]; day 10 post tumor inoculation): 22.33 grams
- body weight (DAL [4]; day 11 post tumor inoculation): 22.66 grams
- body weight (DAL [4]; day 12 post tumor inoculation): 23 grams
- body weight (DAL [4]; day 13 post tumor inoculation): 26.33 grams
- body weight (DAL [4]; day 14 post tumor inoculation): 27 grams
- body weight (DAL [4]; day 15 post tumor inoculation): 28.66 grams
- body weight (DAL [4]; day 18 post tumor inoculation): 30 grams
- body weight (DAL [4]; day 20 post tumor inoculation): 30 grams
- body weight (DAL [4]; day 21 post tumor inoculation): 30 grams
- body weight (DAL [4]; day 24 post tumor inoculation): 30 grams
